# Laboratory results as given in PubChem BioAssay AID248 (DTP/NCI, 2004).
# Several values for one entry are separate records, joined by “and”; a condition that tells them apart may be missing. Equal entries are not always repeated. Toxic doses and inconclusive results are not listed.
# Test system: L1210 leukemia ip in BDF1 mice, survival T/C
# Experiment: NCI In Vivo Anticancer Drug Screen. Data for tumor model L1210 Leukemia (intraperitoneal) in B6D2F1 (BDF1) mice
# Details: endpoint: mean survival time, higher = longer survival
# How it was run: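 Mice bearing the transplanted tumor received compound or vehicle. Survival of the treated group was divided by that of the vehicle-treated control group to give the ratio.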
# [1] = dose: 200.0 mg/kg/injection, schedule: Q01DX009 (ip), vehicle: carboxymethylcellulose (CMC)
# [2] = dose: 100.0 mg/kg/injection, schedule: Q04DX002 (ip), vehicle: Klucel (hydroxypropylcellulose) (HPC)
# [3] = dose: 200.0 mg/kg/injection, schedule: Q04DX002 (ip), vehicle: Klucel (hydroxypropylcellulose) (HPC)
# [4] = dose: 400.0 mg/kg/injection, schedule: Q04DX002 (ip), vehicle: Klucel (hydroxypropylcellulose) (HPC)
# [5] = dose: 100.0 mg/kg/injection, schedule: Q01DX009 (ip), vehicle: Klucel (hydroxypropylcellulose) (HPC)
# [6] = dose: 200.0 mg/kg/injection, schedule: Q01DX009 (ip), vehicle: Klucel (hydroxypropylcellulose) (HPC)
# [7] = dose: 100.0 mg/kg/injection, schedule: Q01DX001 (ip), vehicle: carboxymethylcellulose (CMC)
# [8] = dose: 200.0 mg/kg/injection, schedule: Q01DX001 (ip), vehicle: carboxymethylcellulose (CMC)
# [9] = dose: 100.0 mg/kg/injection, schedule: Q01DX001 (ip), vehicle: saline
# [10] = dose: 200.0 mg/kg/injection, schedule: Q01DX001 (ip), vehicle: saline
# [11] = dose: 400.0 mg/kg/injection, schedule: Q01DX001 (ip), vehicle: saline
structure (smiles),measurement,setting,value
OCC1OC(n2cnc3c(SCc4ccccc4)ncnc32)C(O)C1O (centres undefined),T/C,"dose: 38.5 mg/kg/injection, schedule: Q01DX009 (ip), vehicle: saline",102 % of control
same,T/C,"dose: 58.0 mg/kg/injection, schedule: Q01DX009 (ip), vehicle: carboxymethylcellulose (CMC)",111 % of control
same,T/C,"dose: 58.0 mg/kg/injection, schedule: Q01DX009 (ip), vehicle: saline",124 % of control
same,T/C,"dose: 88.0 mg/kg/injection, schedule: Q01DX009 (ip), vehicle: carboxymethylcellulose (CMC)",124 % of control
same,T/C,"dose: 88.0 mg/kg/injection, schedule: Q01DX009 (ip), vehicle: saline",152 % of control
same,T/C,"dose: 132.0 mg/kg/injection, schedule: Q01DX009 (ip), vehicle: carboxymethylcellulose (CMC)",113 % of control
same,T/C,"dose: 132.0 mg/kg/injection, schedule: Q01DX009 (ip), vehicle: saline",152 % of control
same,T/C,[1],105 % of control
CC(CCN=Cc1ccccc1O)N=Cc1ccccc1O (centres undefined),T/C,"dose: 50.0 mg/kg/injection, schedule: Q01DX001 (ip), vehicle: other",107 % of control
same,T/C,"dose: 100.0 mg/kg/injection, schedule: Q01DX001 (ip), vehicle: other",89 % of control
same,T/C,"dose: 200.0 mg/kg/injection, schedule: Q01DX001 (ip), vehicle: other",97 % of control
same,T/C,"dose: 400.0 mg/kg/injection, schedule: Q01DX001 (ip), vehicle: other",95 % of control
COc1cc(N(CCCl)CCCl)ccc1C=Nc1ccc2c(c1)ncn2C,T/C,"dose: 75.0 mg/kg/injection, schedule: Q04DX002 (ip), vehicle: Klucel (hydroxypropylcellulose) (HPC)",112 % of control
same,T/C,"dose: 150.0 mg/kg/injection, schedule: Q04DX002 (ip), vehicle: Klucel (hydroxypropylcellulose) (HPC)",101 % of control
same,T/C,"dose: 300.0 mg/kg/injection, schedule: Q04DX002 (ip), vehicle: Klucel (hydroxypropylcellulose) (HPC)",108 % of control
CC1(C)OC(=O)CC1CCCC(=O)O (centres undefined),T/C,[2],104 % of control
same,T/C,[3],96 % of control
same,T/C,[4],96 % of control
CCOc1ccccc1NC(=O)c1cccc(C(=O)Nc2ccccc2OCC)c1,T/C,[5],92 % of control
same,T/C,"dose: 100.0 mg/kg/injection, schedule: Q04DX003 (ip), vehicle: Klucel (hydroxypropylcellulose) (HPC)",90 % of control
same,T/C,[6],88 % of control
same,T/C,"dose: 200.0 mg/kg/injection, schedule: Q04DX003 (ip), vehicle: Klucel (hydroxypropylcellulose) (HPC)",96 % of control
same,T/C,"dose: 400.0 mg/kg/injection, schedule: Q01DX009 (ip), vehicle: Klucel (hydroxypropylcellulose) (HPC)",88 % of control
same,T/C,"dose: 400.0 mg/kg/injection, schedule: Q04DX003 (ip), vehicle: Klucel (hydroxypropylcellulose) (HPC)",90 % of control
CC1CC[N-]CC1.CC1CC[N-]CC1.[Br][Pt+2]([Br])([Br])[Br],T/C,"dose: 6.25 mg/kg/injection, schedule: Q01DX009 (ip), vehicle: saline with Tween-80",108 % of control
same,T/C,"dose: 12.5 mg/kg/injection, schedule: Q01DX009 (ip), vehicle: saline with Tween-80",113 % of control
same,T/C,"dose: 12.5 mg/kg/injection, schedule: Q04DX003 (ip), vehicle: saline with Tween-80",104 % of control
same,T/C,"dose: 25.0 mg/kg/injection, schedule: Q04DX003 (ip), vehicle: saline with Tween-80",105 % of control
O=C(C#Cc1ccccc1)c1ccccc1,T/C,"dose: 5.0 mg/kg/injection, schedule: Q01DX009 (ip), vehicle: Klucel (hydroxypropylcellulose) (HPC)",98 % of control
same,T/C,"dose: 5.0 mg/kg/injection, schedule: Q04DX003 (ip), vehicle: Klucel (hydroxypropylcellulose) (HPC)",101 % of control
same,T/C,"dose: 10.0 mg/kg/injection, schedule: Q01DX009 (ip), vehicle: Klucel (hydroxypropylcellulose) (HPC)",96 % of control
same,T/C,"dose: 10.0 mg/kg/injection, schedule: Q04DX003 (ip), vehicle: Klucel (hydroxypropylcellulose) (HPC)",103 % of control
same,T/C,"dose: 20.0 mg/kg/injection, schedule: Q01DX001 (ip), vehicle: Klucel (hydroxypropylcellulose) (HPC)",96 % of control
same,T/C,"dose: 20.0 mg/kg/injection, schedule: Q01DX009 (ip), vehicle: Klucel (hydroxypropylcellulose) (HPC)",102 % of control
same,T/C,"dose: 20.0 mg/kg/injection, schedule: Q04DX003 (ip), vehicle: Klucel (hydroxypropylcellulose) (HPC)",104 % of control
CC(C)=CCCC(C)C/C=N\N=C(N)N (centres undefined),T/C,"dose: 15.0 mg/kg/injection, schedule: Q01DX Z (ip), vehicle: carboxymethylcellulose (CMC)",95 % of control
same,T/C,"dose: 30.0 mg/kg/injection, schedule: Q01DX Z (ip), vehicle: carboxymethylcellulose (CMC)",98 % of control
same,T/C,"dose: 30.0 mg/kg/injection, schedule: Q01DX Z (oral), vehicle: carboxymethylcellulose (CMC)",118 % of control
same,T/C,"dose: 60.0 mg/kg/injection, schedule: Q01DX Z (ip), vehicle: carboxymethylcellulose (CMC)",97 % of control
same,T/C,"dose: 60.0 mg/kg/injection, schedule: Q01DX Z (oral), vehicle: carboxymethylcellulose (CMC)",101 % of control
same,T/C,"dose: 120.0 mg/kg/injection, schedule: Q01DX Z (oral), vehicle: carboxymethylcellulose (CMC)",97 % of control
same,T/C,"dose: 240.0 mg/kg/injection, schedule: Q01DX Z (oral), vehicle: carboxymethylcellulose (CMC)",101 % of control
O=C(O)c1ccc(C(=O)Nc2cccc3ccccc23)c(C(=O)O)c1,T/C,[2],106 % of control
same,T/C,[3],103 % of control
same,T/C,[4],103 % of control
CSc1cccc(NC(=O)Nc2ccc(Cl)cc2)c1,T/C,"dose: 100.0 mg/kg/injection, schedule: Q04DX002 (ip), vehicle: saline with Tween-80",104 % of control
same,T/C,"dose: 200.0 mg/kg/injection, schedule: Q04DX002 (ip), vehicle: saline with Tween-80",93 % of control
same,T/C,"dose: 400.0 mg/kg/injection, schedule: Q04DX002 (ip), vehicle: saline with Tween-80",89 % of control
O=C(O)c1cc2cc(Cl)ccc2oc1=O,T/C,[7],92 % of control
same,T/C,[8],92 % of control
N=C(N)c1cccc(NC(=O)c2ccc(C(=O)Nc3cccc(C(=N)N)c3)c(N)c2)c1,T/C,"dose: 5.0 mg/kg/injection, schedule: Q01DX Z (ip), vehicle: carboxymethylcellulose (CMC)",106 % of control
same,T/C,"dose: 10.0 mg/kg/injection, schedule: Q01DX Z (ip), vehicle: carboxymethylcellulose (CMC)",104 % of control
same,T/C,"dose: 20.0 mg/kg/injection, schedule: Q01DX Z (ip), vehicle: carboxymethylcellulose (CMC)",120 % of control
CCCCCCOC(=O)Nc1ccc(S(=O)(=O)N(CCC)CCC)cc1,T/C,[9],97 % of control
same,T/C,[10],95 % of control
same,T/C,[11],97 % of control
CC(=O)/C=C/c1ccc([N+](=O)[O-])o1,T/C,"dose: 100.0 mg/kg/injection, schedule: Q01DX001 (ip), vehicle: Klucel (hydroxypropylcellulose) (HPC)",116 % of control
same,T/C,"dose: 200.0 mg/kg/injection, schedule: Q01DX001 (ip), vehicle: Klucel (hydroxypropylcellulose) (HPC)",121 % of control
CCCOC(=O)C(CC(C)(C)C)CC(C)(C)C,T/C,[9],104 % of control
same,T/C,[10],104 % of control
same,T/C,[11],101 % of control
COc1cc(CC(=O)N(C)C)c([N+](=O)[O-])cc1OC,T/C,[9],87 % of control
same,T/C,[10],93 % of control
same,T/C,[11],93 % of control
CC(=O)OCC(OC(C)=O)C1(O)CCC2C3CCC4=CC(=O)CCC4(C)C3CCC21C (centres undefined),T/C,"dose: 50.0 mg/kg/injection, schedule: Q01DX009 (ip), vehicle: Klucel (hydroxypropylcellulose) (HPC)",100 % of control
same,T/C,[5],94 % of control and 107 % of control
same,T/C,[6],93 % of control
Cc1ccc(NCC(=O)NN)cc1C,T/C,[7],106 % of control
same,T/C,"dose: 100.0 mg/kg/injection, schedule: Q01DX009 (ip), vehicle: carboxymethylcellulose (CMC)",106 % of control and 91 % of control
same,T/C,[2],91 % of control
same,T/C,"dose: 100.0 mg/kg/injection, schedule: Q04DX002 (ip), vehicle: carboxymethylcellulose (CMC)",115 % of control
same,T/C,"dose: 100.0 mg/kg/injection, schedule: Q04DX003 (ip), vehicle: carboxymethylcellulose (CMC)",101 % of control
same,T/C,[8],94 % of control
same,T/C,[1],105 % of control and 109 % of control
same,T/C,[3],98 % of control
same,T/C,"dose: 200.0 mg/kg/injection, schedule: Q04DX002 (ip), vehicle: carboxymethylcellulose (CMC)",94 % of control
same,T/C,"dose: 200.0 mg/kg/injection, schedule: Q04DX003 (ip), vehicle: carboxymethylcellulose (CMC)",89 % of control
same,T/C,"dose: 400.0 mg/kg/injection, schedule: Q01DX001 (ip), vehicle: carboxymethylcellulose (CMC)",96 % of control
same,T/C,"dose: 400.0 mg/kg/injection, schedule: Q01DX009 (ip), vehicle: carboxymethylcellulose (CMC)",95 % of control and 100 % of control
same,T/C,[4],113 % of control
same,T/C,"dose: 400.0 mg/kg/injection, schedule: Q04DX002 (ip), vehicle: carboxymethylcellulose (CMC)",97 % of control
same,T/C,"dose: 400.0 mg/kg/injection, schedule: Q04DX003 (ip), vehicle: carboxymethylcellulose (CMC)",101 % of control
COc1ccc(NC(=O)C(CC(C(C)=O)C(=O)Nc2ccc(OC)cc2)C(C)=O)cc1 (centres undefined),T/C,"dose: 100.0 mg/kg/injection, schedule: Q01DX009 (ip), vehicle: saline with Tween-80",87 % of control
same,T/C,"dose: 400.0 mg/kg/injection, schedule: Q01DX009 (ip), vehicle: saline with Tween-80",88 % of control
